# Values of other authors in patent US20220184020A1, “Polyphenols as Modulators of Platelet Function” (Northeastern University, priority 2019, published 2022).
# Legend:
# [1] = cited from earlier work; for Max: maximum concentration detected in blood; for Max / Min: HMDB; for Min: minimum concentration detected in blood; for Concentration in Blood: retrieved from HMDB, Table 2
# MCF7 cell line = conditions: MCF7, 1 μM, 6 hours; cited from earlier work
# [2] = in vitro and in vivo models; cited from earlier work
# [3] = in vivo models, recent studies; cited from earlier work
Structure (SMILES),Max [1] [µM],Min [1] [µM],also measured
COc1ccccc1O [guaiacol],8.5,8.5,–
O=c1c(-c2ccc(O)cc2)coc2cc(O)cc(O)c12 [genistein],0.525,0.00022,Concentration in Blood [1]: [0.006-0.525 μM]; number of Skin Diseases (SD) genes with perturbation score>2 (MCF7 cell line): 10; number of highly perturbed Cerebrovascular Disorders (CD) genes (MCF7 cell line): one
Oc1ccccc1 [phenol],6.38,0.86,–
O=c1oc2c(O)c(O)cc3c(=O)oc4c(O)c(O)cc1c4c23 [ellagic acid],0.067,0.067,–
"O=C(O)c1cccc(O)c1O [2,3-dihydroxybenzoic acid]",0.129,0.129,–
O=c1oc2cc(O)ccc2c2oc3cc(O)ccc3c12 [coumestrol],0.0123,0.0123,–
O=c1cc(-c2ccc(O)cc2)oc2cc(O)cc(O)c12 [apigenin],0.127,0.0106,–
O=C(O)Cc1ccccc1 [phenylacetic acid],80.36,10.28,–
O=C(O[C@@H]1Cc2c(O)cc(O)cc2O[C@@H]1c1cc(O)c(O)c(O)c1)c1cc(O)c(O)c(O)c1 [(-)-epigallocatechin 3-O-gallate],–,–,glucose-lowering effects [2]: glucose-lowering effects
O=c1c(O)c(-c2ccc(O)c(O)c2)oc2cc(O)cc(O)c12 [quercetin],–,–,Concentration in Blood [1]: [0.022-0.080 μM]
O=C(O)c1cc(O)c(O)c(O)c1 [gallic acid],–,–,effects on vascular health [3]: protective effects on vascular health
Oc1cc(O)c2c(c1)O[C@H](c1ccc(O)c(O)c1)[C@H](O)C2 [(-)-epicatechin],0.625,0.625,Concentration in Blood [1]: 625 nM
O=C1C[C@@H](c2ccc(O)cc2)Oc2cc(O)cc(O)c21 [naringenin],0.02,0.00815,–
COc1cc(-c2oc3cc(O)cc(O)c3c(=O)c2O)ccc1O [isorhamnetin],0.157,0.0388,–
O=c1c(O)c(-c2cc(O)c(O)c(O)c2)oc2cc(O)cc(O)c12 [myricetin],45,45,–
O=C(O)c1ccccc1O [2-hydroxybenzoic acid],0.02,0.02,–
